According to patent US20180118786A1, “NOVEL lNHIBITORS OF THE ENZYME ACTIVATED FACTOR XII (FXIIA)” (ECOLE POLYTECHNIQUE FEDERALE DE LAUSANNE (EPFL), priority 2015, published 2018):
Starred links: 1 amine or outer side, 2 acyl side, 3 side chain; linkers in the order of their positions; H or OH if unused. Positions of bridges follow the written chain, without caps; N, C: chain ends. Non-standard residues stand in square brackets, D forms with d. Residues, ends and D or L forms follow the SMILES beside them. TATA = O=C(CC[*:1])N1CN(C(=O)CC[*:2])CN(C(=O)CC[*:3])C1; Phe(4-F) = N[C@@H](Cc1ccc(F)cc1)C(=O)O; β3hR = N=C(N)NCCC[C@H](N)CC(=O)O

Key:
human β-FXIIa = target: T1, human β-FXIIa (Homo sapiens, UniProt P00748); test: Protease inhibition assay with fluorogenic substrate (Example 1); assay type: biochemical
T1 construct: human β-FXIIa, a naturally occurring proteolytic product of FXIIa comprising only the catalytic domain; purchased Molecular Innovations HFXIIAB
Description: The inhibitory activity of bicyclic peptides was determined by incubation with proteases and quantification of their residual activity with a fluorogenic substrate. Final concentration of human b-FXIIa (HFXIIAB; Molecular Innovations) and mouse α-FXIIa (MFXIIA; Molecular Innovations) was 10 nM. Dilutions of peptides were prepared ranging from 0.2-200 mM. Fluorescence intensity was measured with an Infinite M200Pro fluorescence plate reader (excitation at 355 nm, emission at 460 nm; Tecan, Männedorf, Switzerland). The reactions were performed at RT. Sigmoidal curves were fitted to the data using the following dose response equation wherein x=peptide concentration, y=% activity of reaction without peptide, A1=100%, A2=0%, p=1. IC50 values were derived from the fitted curve.
The inhibitory constant Ki was calculated according to the equation of Cheng and Prusoff^29 Ki=/050/(1+([S]0/Km) wherein IC50 is the functional strength of the inhibitor, [S]0 is the total substrate concentration, and Km is the Michaelis-Menten constant.

FXII activity = target: T2, FXII activity (Mus musculus, UniProt Q80YC5); test: Inhibition of FXII activity in vivo; parameters: species or system BALB/c mice; settings: mice
T2 construct: from tissue; host or cells: plasma of BALB/c mice after injection
T2 sequence (Q80YC5 20-597): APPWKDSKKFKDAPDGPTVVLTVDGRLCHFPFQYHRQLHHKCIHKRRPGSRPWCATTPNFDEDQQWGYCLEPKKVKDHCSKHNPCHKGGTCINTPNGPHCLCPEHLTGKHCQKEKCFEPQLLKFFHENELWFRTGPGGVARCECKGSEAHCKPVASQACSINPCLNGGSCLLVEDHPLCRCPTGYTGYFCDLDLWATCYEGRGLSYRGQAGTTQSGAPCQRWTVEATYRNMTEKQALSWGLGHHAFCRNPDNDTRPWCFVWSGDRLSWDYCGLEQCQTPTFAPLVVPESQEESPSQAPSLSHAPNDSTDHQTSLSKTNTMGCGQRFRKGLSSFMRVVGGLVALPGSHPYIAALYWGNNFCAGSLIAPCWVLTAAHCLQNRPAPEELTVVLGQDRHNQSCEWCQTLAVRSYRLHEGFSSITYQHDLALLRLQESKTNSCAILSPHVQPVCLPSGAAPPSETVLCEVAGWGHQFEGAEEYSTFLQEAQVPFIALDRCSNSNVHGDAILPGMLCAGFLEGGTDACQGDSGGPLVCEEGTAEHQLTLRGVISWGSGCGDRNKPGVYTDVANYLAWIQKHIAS
Description: Female BALB/c mice were anesthetized with 125 mg/kg pentobarbital. […] Five minutes later, blood was collected from the vena cava at a 1:9 blood to citrate ratio. Plasma was prepared by centrifugation at 2,400 g 10 minutes at RT. FXIIa activity was assessed as described above.

[1] = tested on: thrombin generation in platelet poor plasma; test: Thrombin generation assay by CAT, TF-triggered or without trigger; assay type: biochemical, human; settings: 1 pM TF, 100 μg/mL inhibitor
FXII = target: T3, FXII (Homo sapiens, UniProt P00748); test: FXII coagulant activity (FXII:c) in human plasma; assay type: biochemical; settings: 50 μM
T3 construct: from tissue; host or cells: pooled fresh frozen human plasma
T3 sequence (P00748 20-615): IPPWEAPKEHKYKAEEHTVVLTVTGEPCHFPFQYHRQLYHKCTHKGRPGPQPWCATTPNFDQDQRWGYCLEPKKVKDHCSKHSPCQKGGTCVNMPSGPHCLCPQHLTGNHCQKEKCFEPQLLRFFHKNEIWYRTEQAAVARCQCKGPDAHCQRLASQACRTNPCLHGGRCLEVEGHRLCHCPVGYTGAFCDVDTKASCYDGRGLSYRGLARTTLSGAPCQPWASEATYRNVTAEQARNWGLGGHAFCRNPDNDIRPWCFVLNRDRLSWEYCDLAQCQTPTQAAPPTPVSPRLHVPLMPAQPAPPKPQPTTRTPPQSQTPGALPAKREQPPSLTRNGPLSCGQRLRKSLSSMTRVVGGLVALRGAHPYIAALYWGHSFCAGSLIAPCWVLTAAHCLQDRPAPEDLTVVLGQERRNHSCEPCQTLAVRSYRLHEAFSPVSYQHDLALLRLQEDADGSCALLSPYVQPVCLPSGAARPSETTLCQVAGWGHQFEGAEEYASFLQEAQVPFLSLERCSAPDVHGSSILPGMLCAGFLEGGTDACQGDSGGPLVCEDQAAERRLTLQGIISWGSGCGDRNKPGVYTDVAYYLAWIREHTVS
Description: (§1) aPTT, PT and FXII coagulant activity (FXII:c) measurements Coagulation times (aPTT, PT) and FXIIa activity were determined in human plasma using an automated blood coagulation analyzer (Sysmex CS-5100, Siemens, Eschborn, Germany) with according to the manufacturer's instructions (Siemens). Extrinsic coagulation was triggered with Innovin® (recombinant human tissue factor, synthetic phospholipids and calcium in stabilized HEPES buffer system; Dade Behring/Simens). Intrinsic coagulation was triggered with Pathromtin* SL (Siemens). Human plasma used in this study was derived from a pool of fresh frozen plasma units provided by the Service Regional Vaudois de Transfusion Sanguine, Switzerland.
(§2) Coagulation times (aPTT, PT) and FXIIa activity were determined, at least in duplicate, in human plasma using an automated blood coagulation analyzer (Sysmex CA-7000) with standard reagents according to the manufacturer's instructions (Siemens Healthcare, Eschborn, Germany). Human plasma used in this study was derived from a pool of fresh frozen plasma units provided by the Service Regional Vaudois de Transfusion Sanguine, Switzerland.

[2] = tested on: thrombin generation in platelet poor plasma; test: Thrombin generation assay by CAT, TF-triggered or without trigger; assay type: biochemical, human; parameters: lag time: unit not given here
Description: (§3) Thrombin generation was performed as previously described with some modifications.30 In brief, 60 μL platelet poor plasma (PPP), 20 μL FXIIa inhibitor/HA buffer (Hepes 20 mM, NaCl 140 mM, pH 7.4, 5 mg/mL BSA), and 20 μL PPP reagent, PPP LOW reagent, MP reagent or Actin FS (1:170 diluted in HA buffer) were mixed in a 96-well microtiter plate (Immulon 2HB; Thermo Fisher Scientific) and incubated for 15 min at 37° C. Thrombin generation was triggered by the addition of 20 μL of substrate/calcium chloride buffer (FLUKA) at 37° C. Samples were tested in triplicate for each condition. Fluorogenic thrombin substrate hydrolysis was measured every 20 s for 120 min on a microplate fluorometer (Fluoroskan Ascent FL; Thermo Fisher Scientific) with a 390/460-nm (excitation/emission) filter set. Data analysis was performed on the Thrombinoscope software (Synapse By). PPP reagent (TF […], PL 4 μM), PPP LOW reagent (TF […], PL 4 μM), MP reagent (PL 4 μM), thrombin calibrator and FLUKA were purchased from Synapse By.
Venous blood was collected from healthy volunteers by antecubital venipuncture with 19-gauge needles in 3,2% (w/v) citrated Monovette plastic tubes. In order to minimize contact activation, the first collection tube containing EDTA was discarded according to standard procedures. […] Blood was then processed to PPP by an initial centrifugation step at 2,000 g for 5 min followed by a second centrifugation step at 10,000 g for 10 min. Plasma aliquots were stored at −80 until analysis.

in vitro = settings: human, plasma
Description: (§6) Peptide (2 μl of 2 mM in H2O) was added to 398 μl human plasma (final peptide concentration was 10 μM in 400 μl final volume). The mixture was incubated in the water bath at 37° C. At 8 different time points (0 h, 30 min, 1 h, 2 h, 4 h, 8 h, 12 h, 24 h and in some cases 48 h) a sample of 30 μl was removed, diluted to 200 μl with the same buffer used for protease inhibition assay (see above) and heat-inactivated for 20 min at 65° C. During this step proteases present in plasma are being inactivated, that would otherwise interfere with the subsequently performed enzymatic assay. […] Before analysis, plasma samples were centrifuged for 5 min at 16′000 g and the supernatant was collected. A twofold dilution series ranging from 0.0005-0.5 μM was prepared. IC50 values were derived from the fitted curve using the equation indicated above. Residual inhibition in % was calculated using the following formula: IC50, 0h/IC50, xh*100 wherein IC50, 0h is the functional strength of the inhibitor at time point 0 and IC50, xh the functional strength of inhibitor after one of the different plasma incubation period mentioned above.
(§7) The activity of the plasma proteases was heat-inactivated by incubation of the samples at 65° C. for 10 minutes.

trypsin [3] = target: T4, trypsin (Homo sapiens, UniProt P07477); test: Specificity FXII618 vs CTI, trypsin; assay type: biochemical
extrinsic pathway = test: PT in human plasma (Example 1); assay type: biochemical; settings: 40 μM
Description: as §1, §2

[4] = tested on: intrinsic pathway of coagulation; test: aPTT in human plasma (Example 1); assay type: biochemical
Description: as §1, §2

[5] = tested on: intrinsic pathway (contact activation); test: Thrombin generation assay by CAT triggered by ellagic acid; assay type: biochemical, human; settings: ellagic acid trigger, 20 μg/mL
Description: as §3

FXIIa = settings: cited from earlier work
[6] = tested on: intrinsic coagulation pathway; test: aPTT in human plasma (Example 2); assay type: biochemical
Description: Coagulation times (aPTT, PT) were determined in human plasma using a blood coagulation analyzer (STart. Hemostasis coagulation analyzer, Diagnostica Stago). Extrinsic coagulation was triggered with Innovin (recombinant human tissue factor, synthetic phospholipids and calcium in stabilized HEPES buffer system; Dade Behring; Siemens). Intrinsic coagulation was triggered with Pathromtin* SL (Siemens). Pooled normal human plasma used in this study was provided by Innovative research (USA).
The ability to selectively suppress the intrinsic coagulation pathway was assessed in in vitro coagulation assays. Activated partial thromboplastin time (aPTT) and prothrombin time (PT) measure the time to coagulation upon initiation of coagulation either via the intrinsic (aPTT) or the extrinsic pathway (PT). These tests have been performed in human plasma in the presence of different concentrations of FXIIa-inhibitors. Selective FXIIa inhibition is expected to increase aPTT but not PT. […] At a concentration of 5 μM peptide inhibitor no coagulation via the intrinsic pathway occurred within 120 s. Additionally, there was a correlation between inhibitory activity against FXIIa and extent of aPTT prolongation.

Plasma stability assay = settings: human
Description: as §6, §7

trypsin [7] = target: T4, trypsin; test: Specificity testing (Example 2), trypsin; assay type: biochemical; parameters: purchased Molecular Innovations
Description: (§4) For the specificity testing the following final concentrations of human serine proteases were used: tPA (Molecular Innovations) 7.5 nM, uPA (Molecular Innovations) 1.5 nM, factor XIa (Innovative Research, Novi, Mich., U.S.) 6 nM, PK (Innovative Research) 0.25 nM, thrombin (Molecular Innovations) 1 nM, plasmin (Molecular Innovations) 2.5 nM, trypsin (Molecular Innovations) 0.05 nM, factor VIIa (Haematologic Technologies Inc.) 50 nM and factor Xa (Haematologic Technologies Inc,) 6 nM.
(§5) Dilutions of peptides were prepared ranging from 0.04 to 40 μM.

[8] = tested on: structurally related or functionally important proteases; test: Specificity testing (Example 2), other proteases; assay type: biochemical, human
Description: as §4, §5

[9] = absence of extrinsic- or intrinsic-specific trigger, 100 μg/mL inhibitor

With `CC(C)C[C@@H]1NC(=O)[C@H](CCC(N)=O)NC(=O)[C@H](CCCNC(=N)N)NC(=O)[C@@H]2CSCCC(=O)N3CN(CN(C3)C(=O)CCSC[C@H](NC(=O)[C@@H](N)CCCNC(=N)N)C(=O)N[C@@H](Cc3ccccc3)C(=O)N[C@@H](CCCNC(=N)N)C(=O)N[C@@H](CC(C)C)C(=O)N3CCC[C@H]3C(=O)N2)C(=O)CCSC[C@@H](C(=O)N[C@@H](CCCNC(=N)N)C(N)=O)NC(=O)[C@H](CCCNC(=N)N)NC1=O` [FXII618] the “more potent than PCK” value (human β-FXIIa; compared to PCK) was “around 8 fold”, the “more potent than inhibitor 44” value (human β-FXIIa; compared to small molecule FXIIa inhibitor 44) was over 200 fold and the “improvement in inhibiting human FXIIa” value (human β-FXIIa; in comparison to parent FXII516) was 8 fold. For the same compound, the PT (FXII activity; 3.5 mg/kg FXII618 combined with 3.5 mg/kg PK128) was 7.1 ± 0.2 s, the FXII activity (FXII activity; 3.5 mg/kg FXII618 combined with 3.5 mg/kg PK128 r.o., blood after five minutes) was 49.7+/−13.9% and the “effect on thrombin generation” value [1] was “no significant effect”. The “FXII coagulant activity (FXII:c)” value (FXII) was under 5%, the lag time ([2]; 0.25 pM TF, 100 μg/mL inhibitor) was 12.3±0.3 and the lag time [2, 9] was 55.8±3.7. For the same compound, the peak [2, 9] was 60.3±0.8, the “effect on TF-induced thrombin generation” value ([2]; high concentration of TF, 100 μg/mL inhibitor) was “did not affect TF-induced thrombin generation” and the thrombin activation ([2]; inhibitor added to whole blood immediately after sampling, no trigger) was “completely block thrombin activation”. For the same compound, the half-life at 10 μM (in vitro) was 3.9 ± 1.9 h, the inhibition of trypsin (trypsin [3]; at a concentration as high as 1000 nM) was “no inhibition” and the “trypsin inhibition weaker compared to CTI” value (trypsin [3]; compared to CTI) was “around 100 fold”. For the same compound, the “effect on extrinsic pathway (PT)” value (extrinsic pathway) was “without affecting the extrinsic pathway”, the aPTT ([4]; citrated platelet poor plasma, 100 μg/mL inhibitor) was over 170 s and the aPTT ([4]; human plasma, 40 μM) was over 170 s. The “reduction of endogenous thrombin potential (ETP)” value [5] was over 90% and the reduction of peak [5] was over 90%.

In the case of `N=C(N)NCCCC(NC(=O)C(Cc1ccccc1)NC(=O)C1CCCN1)C(=O)CCl` [PCK, D-Pro-Phe-Arg chloromethyl ketone, reference compound], the IC50 (FXIIa) is given as 180 nM.

With `CC(C)C[C@@H]1NC(=O)[C@H](CCC(N)=O)NC(=O)[C@H](CCCNC(=N)N)NC(=O)[C@@H]2CSCCC(=O)N3CN(CN(C3)C(=O)CCSC[C@H](NC(=O)[C@@H](N)CCCNC(=N)N)C(=O)N[C@@H](Cc3ccc(F)cc3)C(=O)N[C@@H](CCCNC(=N)N)C(=O)N[C@@H](CC(C)C)C(=O)N3CCC[C@H]3C(=O)N2)C(=O)CCSC[C@@H](C(=O)N[C@@H](CCCNC(=N)N)C(N)=O)NC(=O)[C@H](CCCNC(=N)N)NC1=O` [peptide 61] the “aPTT prolongation compared with peptide 1” value [6] was “significantly increased aPTT prolongation”.

For `CC(C)C[C@@H]1NC(=O)[C@H](CCC(N)=O)NC(=O)[C@H](Cc2c[nH]cn2)NC(=O)[C@@H]2CSCCC(=O)N3CN(CN(C3)C(=O)CCSC[C@H](NC(=O)[C@@H](CO)NC(=O)[C@H](N)CCCNC(=N)N)C(=O)N[C@@H](Cc3ccc(F)cc3)C(=O)N[C@@H](CCCNC(=N)N)C(=O)N[C@@H](CC(C)C)C(=O)N3CCC[C@H]3C(=O)N2)C(=O)CCSC[C@@H](C(N)=O)NC(=O)C[C@H](CCCNC(=N)N)NC1=O` [JS33-R] (H-[dR][dS]C[Phe(4-F)]RLPCHQL[β3hR]C-NH2; linker 3-8-13 via TATA; N-terminus and C-terminus assumed), the half-life at 10 μM (Plasma stability assay) was 127 h.

For `CC(C)C[C@@H]1NC(=O)[C@H](CCC(N)=O)NC(=O)[C@H](CCCNC(=N)N)NC(=O)[C@@H]2CSCCC(=O)N3CN(CN(C3)C(=O)CCSC[C@H](NC(=O)[C@@H](N)CCNC(=N)N)C(=O)N[C@@H](Cc3ccc(F)cc3)C(=O)N[C@@H](CCCNC(=N)N)C(=O)N[C@@H](CC(C)C)C(=O)N3CCC[C@H]3C(=O)N2)C(=O)CCSC[C@@H](C(=O)N[C@@H](CCCNC(=N)N)C(N)=O)NC(=O)[C@H](CCCNC(=N)N)NC1=O` [peptide 73], the selectivity over trypsin (trypsin [7]) was 300 fold, the “aPTT prolongation compared with peptide 1” value [6] was “significantly increased aPTT prolongation” and the “selectivity over other plasma proteases” value [8] was ≥ 11,000 fold. The “inhibition of eight of the ten proteases” value ([8]; highest concentration tested (40 μM)) was “less than 20%” and the half-life at 10 μM (in vitro) was 15.5 ± 3.9 h.
